The source made the active and inactive calls. The rule behind the calls is not given here.
Key:
RAW264.7 [1] = assay: Cytotoxicity against mouse RAW264.7 cells assessed as reduction in cell viability at 1 uM incubated for 12 hrs; format: cell-based; details: raw264.7, 12 h
RAW264.7 [2] = assay: Cytotoxicity against mouse RAW264.7 cells assessed as reduction in cell viability at 5 uM incubated for 12 hrs relative to control; format: cell-based; details: raw264.7, 12 h
RAW264.7 [3] = assay: Cytotoxicity against mouse RAW264.7 cells assessed as reduction in cell viability at 10 uM incubated for 12 hrs relative to control; format: cell-based; details: raw264.7, 12 h
RAW264.7 [4] = assay: Photostability of compound in mouse RAW264.7 cells at 1 uM measured for 10 to 120 secs; format: ADME, cell-based; details: raw264.7, 1 µM, time 10-120 sec
A549 [5] = assay: Induction of morphological changes in human A549 cells assessed as appearance of round shaped cells at 1 uM incubated for 48 hrs; format: functional, cell-based
A549 [6] = assay: Cytotoxicity against human A549 cells assessed as reduction in cell growth at 1 to 10 uM incubated for 24 to 48 hrs; format: functional, cell-based; details: dose microM 1-10, time hrs 24-48
A549 [7] = assay: Cytotoxicity against human A549 cells assessed as reduction in cell growth incubated for 24 to 48 hrs; format: functional, cell-based
A549 [8] = assay: Induction of necrosis in human A549 cells by LDH assay; format: functional, cell-based
A549 [9] = assay: Induction of morphological changes in human A549 cells assessed as nuclear condensation at 0.5 to 10 uM incubated for 48 hrs by AO and Hoechst 33258 staining based assay; format: functional, cell-based; details: dose microM 0.5-10, time 48.0 hrs
A549 [10] = assay: Induction of morphological changes in human A549 cells assessed as nuclear fragmentation at 0.5 to 10 uM incubated for 48 hrs by AO and Hoechst 33258 staining based assay; format: functional, cell-based; details: dose microM 0.5-10, time 48.0 hrs
A549 [11] = assay: Induction of apoptosis in human A549 cells assessed as increase in cleaved PARP1 level incubated for 24 hrs by Western blot analysis; format: functional, cell-based
HUVEC = assay: Cytotoxicity against HUVEC assessed as reduction in cell viability; format: cell-based; details: human
A549 [12] = assay: Antitumor activity against human A549 cells treated chicken chorioallantoic membrane assessed as reduction in tumour mass at 50 to 100 uM measured after 3 to 8 days; format: functional, cell-based; details: dose microM 50-100, time day 3-8
A549 [13] = assay: Antitumor activity against human A549 cells treated chicken chorioallantoic membrane assessed as increase in apoptosis cells in tumour mass at 50 to 100 uM by TUNEL staining based confocal microscopic analysis; format: functional, cell-based; details: dose microM 50-100
Chorioallantoic membrane [14] = assay: Induction of angiogenesis in chicken chorioallantoic membrane at 50 to 100 uM by CAM assay; set-up: species or system Gallus gallus; details: dose 50-100 µM
Chorioallantoic membrane [15] = assay: Induction of angiogenesis in chicken chorioallantoic membrane at 200 uM by CAM assay; set-up: species or system Gallus gallus
[16] = target: T1, Myeloperoxidase (Homo sapiens) (UniProt P05164); assay: Effect on MPO in human A549 cells assessed as reduction in chlorination activity at 10 uM measured after 3 to 12 hrs by fluorescence assay; format: cell-based; details: filed as modulator, time hrs 3-12
T1 sequence (whole entry): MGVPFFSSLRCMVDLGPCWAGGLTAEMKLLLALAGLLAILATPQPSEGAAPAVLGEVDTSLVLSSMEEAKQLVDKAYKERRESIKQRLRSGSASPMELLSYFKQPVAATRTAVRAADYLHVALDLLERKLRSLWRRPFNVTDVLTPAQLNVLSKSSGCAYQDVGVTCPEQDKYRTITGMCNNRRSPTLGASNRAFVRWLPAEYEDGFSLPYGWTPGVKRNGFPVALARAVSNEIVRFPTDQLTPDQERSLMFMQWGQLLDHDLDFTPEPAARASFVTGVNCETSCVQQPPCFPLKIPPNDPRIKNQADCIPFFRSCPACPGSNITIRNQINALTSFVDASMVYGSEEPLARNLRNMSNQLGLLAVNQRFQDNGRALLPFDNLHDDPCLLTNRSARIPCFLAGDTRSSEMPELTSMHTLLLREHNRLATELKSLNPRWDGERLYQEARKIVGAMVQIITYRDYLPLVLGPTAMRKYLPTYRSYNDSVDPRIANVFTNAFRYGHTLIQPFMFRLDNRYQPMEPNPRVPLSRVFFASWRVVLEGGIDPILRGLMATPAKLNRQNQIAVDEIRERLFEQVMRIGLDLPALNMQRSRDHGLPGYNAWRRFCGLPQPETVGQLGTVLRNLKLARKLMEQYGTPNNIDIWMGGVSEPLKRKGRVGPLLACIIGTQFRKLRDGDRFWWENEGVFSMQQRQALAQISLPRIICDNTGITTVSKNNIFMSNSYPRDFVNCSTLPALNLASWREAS

[17] = target: T1, Myeloperoxidase (Homo sapiens); assay: Effect on MPO in human A549 cells assessed as reduction in peroxidation activity at 10 uM measured after 3 to 12 hrs by fluorescence assay; format: cell-based; details: filed as modulator, time hrs 3-12
[18] = Drug uptake in LPS stimulated mouse RAW264.7 cells assessed as increase in HOCL mediated fluorescence intensity at 1 uM after 1 hr by confocal microscopic analysis; format: ADME; details: raw264.7, 1 h
A549 [19] = assay: Antitumor activity against human A549 cells treated chicken chorioallantoic membrane assessed as reduction in tumour mass at 200 uM measured after 3 to 8 days; format: functional, cell-based; details: time day 3-8
A549 [20] = assay: Antitumor activity against human A549 cells treated chicken chorioallantoic membrane assessed as increase in apoptosis cells in tumour mass at 200 uM by TUNEL staining based confocal microscopic analysis; format: functional, cell-based

CCN(CC)c1ccc2cc(C3Nc4cccc5cccc(c45)N3)c(=O)oc2c1
Activity (RAW264.7 [1]): Non-Toxic | Activity (RAW264.7 [2]): 61% | Activity (RAW264.7 [3]): 50.5% | Stabilty (RAW264.7 [4]): Stable | Activity (A549 [5]): Active | Activity (A549 [6]): Active | IC50 (A549 [7]): 4.3 µM | Activity (A549 [8]): inactive | Activity (A549 [9]): Active | Activity (A549 [10]): Active | Activity (A549 [11]): Active | Activity (HUVEC): Non-Toxic | Activity (A549 [12]): Active | Activity (A549 [13]): Active | Activity (Chorioallantoic membrane [14]): Non-Toxic | Activity (Chorioallantoic membrane [15]): Non-Toxic | Activity [16]: Active | Activity [17]: Active | Drug uptake [18]: Active

O=c1[nH]cc(F)c(=O)[nH]1
Activity (A549 [19]): Active | Activity (A549 [20]): Active
